This is an account of results in patent US20100280004A1, “SMALL MOLECULE CORRECTORS OF DELTAF508 CFTR TRAFFICKING” (The University of British Columbia and The Royal …, priority 2007, published 2010).

As usually defined, the EC50 is the concentration needed to bring the measured effect to its halfway point. High values mean weaker potency, low ones greater potency.

Series [1] concerns the target T1, ΔF508 CFTR (Homo sapiens, UniProt P13569, DEL508-508). Put plainly: Screening protocol: surface expression of 3HA-tagged ΔF508 CFTR in BHK cells (anti-HA immunofluorescence plate assay). The class given is cell-based. Also on record: expressed in transfected cells; host or cells: BHK cells. The settings on record: for EC50: concentrations between 100 μM and 1 pM, FIG. 2. On the procedure:
BHK cells expressing 3HA-tagged ΔF508 CFTR between passages 5-8 were seeded in 96-well plates (Corning half area, black-sided, clear bottom) at 15,000 cells per well and incubated with culture medium for 24 h at 37° C. […] The remaining 16 wells on each plate were used for control conditions. Cells were fixed in a 2% Para-formaldehyde solution, washed with PBS, and blocked with PBS containing 5% fetal bovine serum (FBS) for 1 h at 4° C.
Blocking solution was replaced with 15 μl of primary antibody solution containing 1% FBS and mouse monoclonal anti-HA antibody (1:150 dilution, Sigma) in PBS. The plates were sealed and left at 4° C. overnight. After three washes with 100 μl PBS, cells were incubated for 1 h with 15 μl of secondary antibody solution containing 1% FBS and anti-mouse IgG conjugated with FITC (1:100 dilution, Sigma) in PBS. Cells were again washed three times with 100 μl of PBS and analyzed in a plate reader (Analyst™ HT96.384, Biosystems) (488 nm excitation, 510 nm emission). Hits were defined as those compounds giving fluorescence at least three standard deviations higher than untreated controls. The mean fluorescence of four untreated wells was used as the background signal when calculating deviations of the 80 compound-treated wells. Hits were then cherry-picked into reservoir plates and re-tested in duplicate using the same assay. Compounds that consistently give signals that were three standard deviations above untreated controls and were not intrinsically fluorescent were considered validated and studied further.

The test system of a further series is panel of protein kinases. Put plainly: Enzyme inhibition against a panel of protein kinases. The class given is biochemical.
The target of series [2] is T1, ΔF508 CFTR. Put plainly: Immunoblotting analysis of biosynthetic processing of ΔF508-CFTR in BHK cells. It is filed as cell-based. Also on record: expressed in transfected cells; host or cells: BHK cells. The procedure: The effects of the latonduines on the biosynthetic processing of ΔF508-CFTR, latonduine treatment was assayed by immunoblotting analysis (FIGS. 4A and B).
Cell lysates were quantitated by Bradford assay (BioRad) and separated by SDS-PAGE (6% polyacrylamide gels) and analyzed by Western blotting. Western blots were blocked using 5% skimmed milk in PBS, then were probed overnight at 4° C. with a primary anti-CFTR antibody at a dilution of 1:1000 monoclonal mouse antibody (Chemicon). The blots were washed four times in PBS before the addition of the secondary HRP-conjugated anti-mouse antibody, at a dilution of 1:5000 (Amersham) for one hour at room temperature. The blots were washed five times in PBS and probed for chemiluminescence (Pierce). All samples were run with equal protein loading as determined using the Bradford assay (Biorad). Densitometry of the immunoblots were performed using the ImageJ program.

Series [3] deals with panel of human cancer lines. Description: Cytotoxicity assays against a panel of human cancer lines. The class given is cell-based.
The next series deals with T2, F508del-CFTR (Homo sapiens, UniProt P13569, DEL508-508).
T2 construct: expressed in transfected cells; host or cells: BHK cells
T2 sequence (P13569 with tags, fused parts or gaps DEL508-508): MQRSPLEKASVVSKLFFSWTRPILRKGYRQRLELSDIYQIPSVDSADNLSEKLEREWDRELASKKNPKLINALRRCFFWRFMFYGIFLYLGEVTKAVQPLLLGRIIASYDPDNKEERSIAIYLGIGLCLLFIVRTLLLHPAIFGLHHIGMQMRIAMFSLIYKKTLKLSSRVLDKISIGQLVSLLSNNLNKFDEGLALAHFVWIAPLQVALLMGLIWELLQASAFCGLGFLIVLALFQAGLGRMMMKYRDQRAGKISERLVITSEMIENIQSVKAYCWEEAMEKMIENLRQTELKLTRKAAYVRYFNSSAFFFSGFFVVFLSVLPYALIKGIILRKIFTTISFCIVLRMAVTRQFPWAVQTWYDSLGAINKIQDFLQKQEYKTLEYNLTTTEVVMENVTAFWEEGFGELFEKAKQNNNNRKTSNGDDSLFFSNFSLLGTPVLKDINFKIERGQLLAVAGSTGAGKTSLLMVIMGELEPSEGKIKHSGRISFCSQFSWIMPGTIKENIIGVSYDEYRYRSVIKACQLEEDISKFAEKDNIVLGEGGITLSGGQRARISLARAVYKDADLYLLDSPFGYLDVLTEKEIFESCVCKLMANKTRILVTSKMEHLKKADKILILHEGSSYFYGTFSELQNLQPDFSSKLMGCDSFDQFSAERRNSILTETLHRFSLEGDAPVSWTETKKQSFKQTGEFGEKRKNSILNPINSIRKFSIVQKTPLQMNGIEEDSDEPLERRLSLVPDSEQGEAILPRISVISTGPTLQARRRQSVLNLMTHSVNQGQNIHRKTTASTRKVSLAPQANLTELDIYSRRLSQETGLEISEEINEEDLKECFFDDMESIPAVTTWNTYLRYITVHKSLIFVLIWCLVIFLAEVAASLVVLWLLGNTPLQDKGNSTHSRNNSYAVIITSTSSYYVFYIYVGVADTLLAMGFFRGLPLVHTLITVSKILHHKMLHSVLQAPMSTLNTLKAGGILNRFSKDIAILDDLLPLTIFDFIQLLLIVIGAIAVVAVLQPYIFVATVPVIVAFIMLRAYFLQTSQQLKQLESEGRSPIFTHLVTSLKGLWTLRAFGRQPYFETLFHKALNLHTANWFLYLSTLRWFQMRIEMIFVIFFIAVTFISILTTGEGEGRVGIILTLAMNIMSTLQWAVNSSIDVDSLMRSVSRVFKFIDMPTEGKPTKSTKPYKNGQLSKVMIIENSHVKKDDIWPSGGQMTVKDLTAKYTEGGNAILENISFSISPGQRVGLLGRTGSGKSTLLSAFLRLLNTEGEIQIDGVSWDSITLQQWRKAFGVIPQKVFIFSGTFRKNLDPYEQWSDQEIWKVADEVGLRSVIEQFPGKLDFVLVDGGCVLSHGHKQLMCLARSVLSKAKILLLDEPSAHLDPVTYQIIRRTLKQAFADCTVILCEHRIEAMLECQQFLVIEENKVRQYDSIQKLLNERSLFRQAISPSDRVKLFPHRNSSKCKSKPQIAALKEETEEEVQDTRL
Put plainly: Immunofluorescence/confocal microscopy: cell surface CFTR (overlap with wheat germ agglutinin) in BHK cells expressing F508del-CFTR. It is filed as cell-based. The following applies: 10 μM, 24 hours, FIG. 3. The procedure: BHK cells expressing F508del-CFTR were treated with 10 μM of the latonduines for 24 hours and then immunostained for CFTR and imaged by confocal microscopy (photomicrograph data not shown).
Cells were seeded onto 1 cm diameter glass coverslips (5000 per coverslip) and incubated overnight, then treated with compound and fixed in 2% Para formaldehyde. After fixation, cells were blocked using (5% FBS in PBS) for 1 hour at 4° C. The coverslips were then washed in PBS and incubated with primary antibody solution (1% FBS in PBS with 1:200 dilution mouse anti-CFTR antibody (Chemicon) for 2 hours at room temperature (0.05% Tween-20 was added to the blocking solution when staining of intracellular CFTR was required). Coverslips were washed four times in PBS and probed with secondary antibody solution (1% FBS in PBS plus goat anti-mouse Alexa 568 conjugated antibody at 1:1000 dilution) for 1 h at room temperature in the dark. The cells were then washed three times with PBS. The coverslips were then mounted on slides using an antifade mounting solution (Permamount) for confocal microscopy.
Analysis was done using the ImageJ system using 120-150 cells per sample in six fields. […]
The cell surface was identified using wheat germ agglutinin and the amount of cell surface CFTR measured (FIG. 3). […]

Series [4] has as its target T1, ΔF508 CFTR. Put plainly: Iodide efflux assay in CFBE cells expressing ΔF508-CFTR. More on the design: endogenous in cells; host or cells: CFBE cells (human lung epithelial cells from a CF patient). It is filed as cell-based. The following applies: CFBE cells (human lung epithelia of a cystic fibrosis patient); FIG. 5B. The procedure: Experiments were performed by hand or with a robotic liquid handling system (BioRobot 8000, Qiagen, USA) using Qiagen 4.1 software. Cells were cultured in 24-well plates until they reached confluence in order to perform parallel experiments and comparison analysis. After treatment or not with a test compound, the medium of each well was replaced with 1 ml of iodide loading buffer (in mM: 136 NaI, 3 KNO3, 2 Ca(NO3)2, 11 glucose and 20 Hepes pH 7.4) for 1 hour at 37° C. to permit the I− to reach equilibrium. At the beginning of each experiment, the loading buffer was removed by aspiration and cells were washed eight times with efflux buffer (same as loading buffer except that NaI was replaced with 136 mM NaNO3) to remove extracellular I^− in each well. The loss of intracellular I^− was determined by removing the medium with efflux buffer every 1 min for up to 11 min. The first four aliquots were recovered at 1-minute intervals in an empty 24-well plate and used to establish a stable baseline in efflux buffer alone. […] The iodide concentration of each aliquot was determined using an iodide-sensitive electrode (Orion Research Inc., Boston, Mass., USA or Ecomet) and converted to iodide content (i.e. the amount of iodide released during the 1 min interval). […]

T1 sequence (P13569 with tags, fused parts or gaps DEL508-508): as above

Regarding `Nc1ncc2c(n1)-c1c([nH]c(Br)c1Br)C(=O)NC2` [isolatonduine], the “response in the screening protocol (surface expression of ΔF508 CFTR)” value at ΔF508 CFTR [1] (24-hour treatment, 10 μM, FIGS. 1 and 6) is “positive response”.

Consider `Nc1ncc2c(n1)CNC(=O)c1[nH]c(Br)c(Br)c1-2` [latonduine A], for which, in the series on panel of protein kinases, the enzyme inhibition result was “inactive”. Besides, the “surface expression, % of that observed in cells expressing wild-type CFTR” value on ΔF508 CFTR [2] (F508del-CFTR, stated in Example III) is “about 25%”. For the same compound, the “share of F508del-CFTR that was complex-glycosylated” value at ΔF508 CFTR [2] (cells treated with the compound, densitometry of immunoblot) is recorded as “Up to 30%”. The cytotoxicity entry in series [3] is “inactive”. Also, the “cell surface CFTR, % of the amount of wild-type CFTR plasma membrane signal” value on F508del-CFTR came to 29%. Also, the concentration giving a half-maximal response (EC50) at ΔF508 CFTR [1] came out at 0.4 nM.

For the compound `CCOC(=O)c1nc(N)nc2c1-c1c([nH]c(Br)c1Br)C(=O)NC2` [latonduine B ethyl ester], the enzyme inhibition result with panel of protein kinases was “inactive”. For the same compound, the cytotoxicity result in series [3] was “inactive”. Moreover, the “cell surface CFTR, % of the amount of wild-type CFTR plasma membrane signal” value at F508del-CFTR was 51%. Further, at ΔF508 CFTR [4], the “functional ΔF508-CFTR ion channels, iodide efflux” value is recorded as “can act as correctors of ΔF508-CFTR giving functional ion channels on the cell surface”. Moreover, at ΔF508 CFTR [1], the midpoint of the response, the EC50, lay at 0.5 nM.

For `COC(=O)c1nc(N)nc2c1-c1c([nH]c(Br)c1Br)C(=O)NC2` [latonduine B methyl ester], the enzyme inhibition entry with panel of protein kinases is “inactive”. The cytotoxicity entry in series [3] is “inactive”. This compound had an EC50 on ΔF508 CFTR [1] of 25 nM.

For the compound `Nc1nc2c(c(C(=O)O)n1)-c1c([nH]c(Br)c1Br)C(=O)NC2` [latonduine B], the enzyme inhibition result in the series with panel of protein kinases was “inactive”. Besides, the cytotoxicity entry in series [3] is “inactive”.
